Data as given in ChEMBL document CHEMBL6182884, “Synthesis and structure-activity evaluation of a series of novel tricyclic STING activators” (Eur J Med Chem, 2025).

The compounds below were run against Stimulator of interferon genes protein (Homo sapiens, UniProt Q86WV6) (assay: Activation of human STING R232 variant transfected in HEK293T cells expressing ISRE.ISG54 luciferase reporter assessed as secretory reporter gene activity by measuring luciferase level incubated for 20 hrs by luminometer).
Sequence of Stimulator of interferon genes protein (Q86WV6 whole entry, looked up): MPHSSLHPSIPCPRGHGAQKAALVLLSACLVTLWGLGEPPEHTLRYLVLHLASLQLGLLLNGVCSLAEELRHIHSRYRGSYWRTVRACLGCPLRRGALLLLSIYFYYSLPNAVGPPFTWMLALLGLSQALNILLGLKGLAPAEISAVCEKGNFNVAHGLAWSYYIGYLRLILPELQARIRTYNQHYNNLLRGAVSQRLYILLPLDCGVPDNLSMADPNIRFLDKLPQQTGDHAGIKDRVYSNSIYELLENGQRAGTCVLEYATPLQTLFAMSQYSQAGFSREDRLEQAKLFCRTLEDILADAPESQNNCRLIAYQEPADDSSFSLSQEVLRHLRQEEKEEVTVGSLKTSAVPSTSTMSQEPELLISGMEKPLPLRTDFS
Assay type: cell-based
In the case of `C[C@@H]1Sc2ccc(C(=O)NCc3cc4cc(F)ccc4o3)cc2-n2c(-c3ccc(F)cc3)nnc21`, the EC50 is reported as 40 nM. Work on `C[C@H]1Sc2ccc(C(=O)NCc3cc4cc(F)ccc4o3)cc2-n2c(-c3ccc(F)cc3)nnc21` yielded an EC50 of 1090 nM. `O=C(NCc1c(F)cc(F)cc1F)c1ccc2c(c1)-n1c(nnc1-c1ccccc1)CS2` showed an EC50 of 2080 nM. Compound `CC1Sc2ncc(C(=O)NCc3cc4ccccc4o3)cc2-n2c(-c3ccccc3)nnc21` (racemic) has an EC50 of 414 nM. `CC1Sc2ccc(C(=O)NCc3c(F)cc(F)cc3F)cc2-n2c(Cc3ccccc3)nnc21` (racemic) gave an EC50 of 1540 nM. `CC1Sc2ccc(C(=O)NCc3cc4cc(F)ccc4o3)cc2-n2c(-c3ccc(F)cc3)nnc21` (racemic) gave an EC50 of 48 nM. For `CC1Sc2ccc(C(=O)NCc3c(F)cc(F)cc3F)cc2-n2c(-c3ccc(F)cc3)nnc21` (racemic), the EC50 was 373 nM. In the case of `CC1Sc2ccc(C(=O)NCc3cc4cc(F)ccc4o3)cc2-n2c(-c3ccc(F)cc3F)nnc21` (racemic), the EC50 is reported as 53 nM. Compound `Cc1cccc(-c2nnc3n2-c2cc(C(=O)NCc4c(F)cc(F)cc4F)ccc2SC3C)c1` (racemic) has an EC50 of 1560 nM. With `CC1Sc2ccc(C(=O)NCc3cc4ccc(F)cc4o3)cc2-n2c(-c3ccc(F)cc3)nnc21` (racemic) the EC50 was 65 nM. In the case of `CC1Sc2ccc(C(=O)NCc3cc4cc(F)c(F)cc4o3)cc2-n2c(-c3ccc(F)cc3)nnc21` (racemic), the EC50 is reported as 45 nM. `CC1Sc2ccc(C(=O)NCc3c(F)cc(F)cc3F)cc2-n2c(-c3cccc(F)c3)nnc21` (racemic) showed an EC50 of 2880 nM. `CC1Sc2ccc(C(=O)NCc3c(F)cc(F)cc3F)cc2-n2c(-c3ccncc3)nnc21` (racemic) gave an EC50 of 1630 nM. `CC1Sc2ccc(C(=O)NCc3c(F)cc(F)cc3F)cc2-n2c(-c3ccccc3F)nnc21` (racemic) gave an EC50 of 804 nM. In the case of `CC1Sc2ccc(C(=O)NCc3c(F)cc(F)cc3F)cc2-n2c(-c3ccc(Cl)cc3F)nnc21` (racemic), the EC50 is reported as 1970 nM. With `Cc1ccc(-c2nnc3n2-c2cc(C(=O)NCc4c(F)cc(F)cc4F)ccc2SC3C)cc1` (racemic) the EC50 was 3810 nM. Work on `CC1Sc2ncc(C(=O)NCc3cc4cc(F)ccc4o3)cc2-n2c(-c3ccc(F)cc3)nnc21` (racemic) yielded an EC50 of 111 nM.
